Assay results reported in ChEMBL document CHEMBL4831530, “Exploring Marine-Derived Ascochlorins as Novel Human Dihydroorotate Dehydrogenase Inhibitors for Treatment of Triple-Negative Breast Cancer” (J Med Chem, 2021).
The source made the active and inactive calls. No cut-off for these calls is given here.

Experiments:
MDA-MB-231 [1] = experiment: Cytotoxicity against human MDA-MB-231 cells assessed as reduction in cell viability incubated for 24 hrs by CellTiter-Glo luminescent assay; assay type: functional, cell-based; details: Homo sapiens, MDA-MB-231, 24 h
MDA-MB-468 [2] = experiment: Cytotoxicity against human MDA-MB-468 cells assessed as reduction in cell viability incubated for 24 hrs by CellTiter-Glo luminescent assay; assay type: functional, cell-based; details: Homo sapiens, MDA-MB-468, 24 h
[3] = molecular target: Dihydroorotate dehydrogenase (quinone), mitochondrial (Homo sapiens, UniProt Q02127); experiment: Inhibition of recombinant N-terminal His-tagged human DHODH (31 to 395 residues) expressed in Escherichia coli using DL-dihydroorotic acid as substrate and Q0 as coenzyme by DCIP based assay
MDA-MB-231 [4] = experiment: Induction of apoptosis in human MDA-MB-231 cells assessed as increase in apoptotic cells incubated for 2 days by annexin-V/FITC propidium iodide staining based flow cytometry analysis; assay type: functional, cell-based; details: time 2.0 day
MDA-MB-468 [5] = experiment: Induction of apoptosis in human MDA-MB-468 cells assessed as increase in apoptotic cells incubated for 2 days by annexin-V/FITC propidium iodide staining based flow cytometry analysis; assay type: functional, cell-based; details: time 2.0 day
MDA-MB-231 [6] = experiment: Inhibition of cell proliferation in human MDA-MB-231 cells at <=10 uM incubated for 4 days in presence of uridine by CellTiter-Glo luminescent assay; assay type: functional, cell-based; details: dose microM <=10, time 4.0 day
MDA-MB-468 [7] = experiment: Inhibition of cell proliferation in human MDA-MB-468 cells at <=10 uM incubated for 4 days in presence of uridine by CellTiter-Glo luminescent assay; assay type: functional, cell-based; details: dose microM <=10, time 4.0 day
[8] = Toxicity in NOD/SCID mouse xenografted with patient-derived breast cancer cells assessed as effect on body weight loss at 15 to 60 mg/kg, ip administered 5 times a week and measured after 21 days; assay type: organism-based; details: in vivo, 504 h, dose 15-60 mg/kg, time 21 day
[9] = Toxicity in NOD/SCID mouse xenografted with patient-derived breast cancer cells assessed as effect on organ damage at 15 to 60 mg/kg, ip administered 5 times a week and measured after 21 days by hematoxylin and eosin staining based analysis; assay type: organism-based; details: in vivo, 504 h, dose 15-60 mg/kg, time 21 day
LNCaP C4-2B = experiment: Cytotoxicity against human LNCaP C4-2B cells assessed as reduction in cell viability incubated for 24 hrs by CellTiter-Glo luminescent assay; assay type: functional, cell-based
143B = experiment: Cytotoxicity against human 143B cells assessed as reduction in cell viability incubated for 24 hrs by CellTiter-Glo luminescent assay; assay type: functional, cell-based
HL-60 = experiment: Cytotoxicity against human HL-60 cells assessed as reduction in cell viability incubated for 24 hrs by CellTiter-Glo luminescent assay; assay type: functional, cell-based
MDA-MB-231 [10] = experiment: Induction of apoptosis in human MDA-MB-231 cells assessed as increase in cleaved PARP1 level measured after 2 days by Western blot analysis; assay type: functional, cell-based; details: dose 0.5-2 µM, time 2.0 day
MDA-MB-468 [11] = experiment: Induction of apoptosis in human MDA-MB-468 cells assessed as increase in cleaved PARP1 level measured after 2 days by Western blot analysis; assay type: functional, cell-based; details: dose 0.5-2 µM, time 2.0 day
MDA-MB-231 [12] = experiment: Induction of apoptosis in human MDA-MB-231 cells assessed as increase in cleaved caspase7 level measured after 2 days by Western blot analysis; assay type: functional, cell-based; details: dose 0.5-2 µM, time 2.0 day
MDA-MB-468 [13] = experiment: Induction of apoptosis in human MDA-MB-468 cells assessed as increase in cleaved caspase7 level measured after 2 days by Western blot analysis; assay type: functional, cell-based; details: dose 0.5-2 µM, time 2.0 day
[14] = Antitumor activity against patient-derived breast cancer cells xenografted in NOD/SCID mouse assessed as tumor growth suppression at 5 mg/kg, ip administered 5 times a week and measured after 16 days relative to control; assay type: functional; details: Homo sapiens, Breast cancer cell line, 384 h, time 16 day
[15] = Antitumor activity against patient-derived breast cancer cells xenografted in NOD/SCID mouse assessed as reduction in tumor volume at 5 mg/kg, ip administered 5 times a week and measured after 16 days relative to control; assay type: functional, Homo sapiens, Breast cancer cell line; parameters: scale not given: the % may be the effect or the level left; details: time 16 day
[16] = Toxicity in NOD/SCID mouse xenografted with patient-derived breast cancer cells assessed as effect on body weight loss at 5 mg/kg, ip administered 5 times a week and measured after 16 days; assay type: organism-based; details: in vivo, 384 h, time 16 day
[17] = Toxicity in NOD/SCID mouse xenografted with patient-derived breast cancer cells assessed as effect on organ damage at 5 mg/kg, ip administered 5 times a week and measured after 16 days by hematoxylin and eosin staining based analysis; assay type: organism-based; details: in vivo, 384 h, time 16 day

Dihydroorotate dehydrogenase (quinone), mitochondrial, sequence (Q02127 whole entry, the tested form may be a part): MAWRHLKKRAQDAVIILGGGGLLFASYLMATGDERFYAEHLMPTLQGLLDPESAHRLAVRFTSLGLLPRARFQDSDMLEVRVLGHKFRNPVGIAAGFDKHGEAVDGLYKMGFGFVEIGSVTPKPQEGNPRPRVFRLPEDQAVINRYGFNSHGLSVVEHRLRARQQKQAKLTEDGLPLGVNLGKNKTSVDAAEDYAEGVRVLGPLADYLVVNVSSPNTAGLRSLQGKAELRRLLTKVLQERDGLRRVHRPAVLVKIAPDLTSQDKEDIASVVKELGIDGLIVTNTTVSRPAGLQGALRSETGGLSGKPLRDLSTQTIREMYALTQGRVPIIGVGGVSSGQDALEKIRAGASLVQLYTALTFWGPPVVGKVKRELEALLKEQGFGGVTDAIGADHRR

| IC50 [3] [µM] | SMILES | IC50 (MDA-MB-231 [1]) [µM] | IC50 (MDA-MB-468 [2]) [µM] | other results |
| --- | --- | --- | --- | --- |
| 11 | C/C(=C\Cc1c(O)cc(C)c(C=O)c1O)CC[C@@]1(C)[C@H](C)CCC(=O)[C@@H]1C [ILICICOLIN F] | 26 | 27 | – |
| 5 | C/C(=C\Cc1c(O)cc(C)c(C=O)c1O)CC/C=C(\C)CC[C@H](O)C(C)(C)O | > 60 | 29 | – |
| 34 | C/C(=C\Cc1c(O)c(Cl)c(C)c(C=O)c1O)CC[C@H]1C(C)(C)C(=O)CC[C@]1(C)O | > 60 | > 60 | – |
| 30 | CC(=O)O[C@@H](CC/C(C)=C/CC/C(C)=C/Cc1c(O)c(Cl)c(C)c(C=O)c1O)C(C)(C)O | 7.4 | 6 | Activity (MDA-MB-231 [4]): Dose-Dependent Effect; Activity (MDA-MB-468 [5]): Dose-Dependent Effect; inhibition (MDA-MB-231 [6]): inactive; inhibition (MDA-MB-468 [7]): inactive; Activity [8]: Non-Toxic; Activity [9]: Non-Toxic |
| 20 | C/C(=C\Cc1c(O)c(Cl)c(C)c(C(=O)O)c1O)CC/C=C(\C)CC[C@H](O)C(C)(C)O | > 60 | 49 | – |
| 0.72 | C/C(=C\Cc1c(O)c(Cl)c(C)c(C=O)c1O)CC/C=C(\C)[C@@H]1C[C@H](O)C(C)(C)O1 | 12 | 11 | – |
| 0.39 | C=C(C)[C@@H](O)CC/C(C)=C/CC/C(C)=C/Cc1c(O)c(Cl)c(C)c(C=O)c1O | 3.3 | 1.7 | – |
| 9.3 | C/C(=C\Cc1c(O)c(Cl)c(C)c(C=O)c1O)CC/C=C(\C)CCC(=O)C(C)(C)O | > 60 | > 60 | – |
| 3.7 | C/C(=C\Cc1c(O)c(Cl)c(C)c(C=O)c1O)CC/C=C(\C)CC[C@H](O)C(C)(C)O | 23 | 20 | – |
| 6.5 | C/C(=C\Cc1c(O)c(Cl)c(C)c(C=O)c1O)[C@H](O)C[C@@]1(C)[C@H](C)CCC(=O)[C@@H]1C | 38 | 45 | – |
| 0.074 | C=C1CC[C@H](O)C(C)(C)[C@@H]1CC/C(C)=C/Cc1c(O)c(Cl)c(C)c(C=O)c1O | 0.65 | 0.48 | Activity (LNCaP C4-2B): Dose-Dependent Effect; Activity (143B): Dose-Dependent Effect; Activity (HL-60): Dose-Dependent Effect; Activity (MDA-MB-231 [4]): Dose-Dependent Effect; Activity (MDA-MB-468 [5]): Dose-Dependent Effect; Activity (MDA-MB-231 [10]): Dose-Dependent Effect; Activity (MDA-MB-468 [11]): Dose-Dependent Effect; Activity (MDA-MB-231 [12]): Dose-Dependent Effect; Activity (MDA-MB-468 [13]): Dose-Dependent Effect; inhibition (MDA-MB-231 [6]): inactive; inhibition (MDA-MB-468 [7]): inactive; inhibition in vivo at 5 mg/kg [14]: 51.7%; Activity [15]: 37.41%; Activity [16]: Non-Toxic; Activity [17]: Non-Toxic |
| 3.9 | C=C(/C=C/[C@@]1(C)[C@H](C)CCC(=O)[C@@H]1C)[C@H](O)Cc1c(O)c(Cl)c(C)c(C=O)c1O | 45 | 34 | – |

| SMILES | IC50 [3] [µM] | IC50 (MDA-MB-231 [1]) [µM] | IC50 (MDA-MB-468 [2]) [µM] | other results |
| --- | --- | --- | --- | --- |
| C/C(=C\Cc1c(O)c(Cl)c(C)c(C=O)c1O)CC/C=C(\C)[C@@H]1CC(=O)C(C)(C)O1 [ASCOFURANONE] | 5.4 | 5.2 | 7.1 | – |
| C/C(=C\Cc1c(O)c(Cl)c(C)c(C=O)c1O)CC[C@@]1(C)[C@H](C)CCC(=O)[C@@H]1C [ILICICOLIN C] | 1.9 | 34 | 13 | – |
